The text below walks through data of publication PMC8296985, “A Covalent Calmodulin Inhibitor as a Tool to Study Cellular Mechanisms of K-Ras-Driven Stemness” (Frontiers in Cell and Developmental Biology, 2021).

What all share (type): cell-based
The test system of one experiment is K-RasG12V. In words: K-RasG12V nanoclustering-BRET assay in HEK293-EBNA cells. As to the method:
BRET assays were essentially performed as described by others ([Lavoie et al., 2013]; [Bery et al., 2018]). About 100,00–150,000 HEK293-EBNA ([Meissner et al., 2001]) cells were seeded per well of a 12-well plate in 1 ml of DMEM containing 10% FBS and 2 mM L-glutamine and were grown for 24 h. Next day, Rluc8-tagged donor and GFP2-tagged acceptor constructs were transfected into cells using a jetPRIME transfection reagent (cat. no. 114-75, Polyplus). Each well was transfected with about 1 μg of plasmid DNA using 3 μl of the jetPRIME reagent. For BRET donor saturation titration experiments, the concentration of donor plasmid (25 ng) was kept constant, and the concentration of acceptor plasmid was increased from 0 to 500 ng for RasG12V BRET pairs and 0–1,000 ng for K-Ras/CaM BRET pairs. The empty pcDNA3.1(-) plasmid was used to top-up the total DNA load per transfection. After 24 h of transfection, cells were treated with compounds or vehicle control (DMSO 0.2% v/v in a growth medium) at the specified concentration for 24 h or the stipulated time period in case of the time-course experiments. The cells from one well of a 12-well plate were collected, washed, and re-plated in PBS (cat. no. 14190-094, Gibco, Thermo Fisher Scientific) on flat bottom, white 96-well plates (cat. no. 236108, Nunc, Thermo Fisher Scientific) as four technical replicates containing 90 μl of cell suspension per well. Then fluorescence intensity followed by BRET readings were carried out on a Clariostar (BMG Labtech) plate reader at 25°C. The fluorescence intensity (RFU) of GFP2 was measured with excitation at 405 ± 10 nm and emission 515 ± 10 nm; it is proportional to the acceptor concentration [acceptor]. BRET readings were taken well by well by adding 10 μl of 100 μM coelenterazine 400a (cat. no. C-320, GoldBio), the Rluc8 substrate to each well (final concentration of 10 μM) using the injector present in the plate reader. Luminescence emission intensities were simultaneously recorded at 410 ± 40 nm (RLU, proportional to [donor]) and 515 ± 15 nm (BRET signal).
The raw BRET ratio was calculated as the BRET signal measured at 515 nm divided by the emission signal measured at 410 nm (RLU). The BRET ratio was obtained by subtracting the raw BRET ratio by a background BRET signal measured for cells expressing only the donor ([Bacart et al., 2008]) as indicated in the formula below:
For BRET donor saturation titration experiments, the BRET ratio was plotted against the [acceptor]/[donor] ratio. Technical repeat data points were averaged, and data points from all biological repeats were collected into one graph for subsequent fitting. The BRET ratio vs. relative expression data were fitted using a binding saturation equation in the Prism (GraphPad) software to obtain BRETmax and BRET50 using the equation y=BRETmax×x/BRET50+x , where x is the relative expression and y is the BRET ratio. BRETmax represents the maximum saturation BRET signal and depends on the structural parameters (distance, orientation) of the BRET complex. BRET50 corresponds to the ratio of the acceptor construct over the donor construct required to attain 50% of the maximum BRET signal and is a measure of the effective relative affinity between the interacting BRET pair ([Marullo and Bouvier, 2007]).
When applying the DSS analysis to nanoclustering-BRET data, we used mevastatin (10 μM) to obtain the asymptote parameter (a) for the maximal inhibition effect, as it prevents the prenylation of Ras proteins, their plasma membrane trafficking, and therefore nanoclustering. Otherwise, normalized BRET ratio data were converted to % inhibition and then subsequently uploaded onto the Breeze site (see text footnote 1).
For orientation: In BRET a luciferase serves as donor, and the signal depends on an acceptor being close.

Another experiment deals with Hs 578T. In words: 3D spheroid (tumorosphere) formation assay, low attachment, serum-free, alamarBlue. The note with it: Homo sapiens. As to the method: (§1) 3D spheroid formation assays were performed in 96-well low-attachment, suspension culture plates (cat. no. 655185, Cellstar, Greiner Bio-One) under serum-free condition. About 1,000 (MDA-MB-231, NCI-H358, and MIA PaCa-2) or 2,500 (Hs 578T) cells per well were seeded in 50 μl of either an RPMI medium (cat. no. 52400-025, Gibco, Thermo Fisher Scientific) (MDA-MB-231, A375, and NCI-H358) or DMEM (cat. no. 41965-039, Gibco, Thermo Fisher Scientific) (Hs 578T and MIA PaCa-2), containing 0.5% MethoCult (cat. no. SF H4636, Stemcell technologies), 1x B27 (cat. no. 17504044, Gibco, Thermo Fisher Scientific), 25 ng/ml EGF (cat. no. E9644, Sigma-Aldrich), and 25 ng/ml FGF (cat. no. RP-8628, Thermo Fisher Scientific). Cells were cultured for 3 days and then treated with compounds or vehicle control (DMSO 0.1% v/v in growth medium) for another 3 days. The cells were supplemented with a fresh growth medium on the third day together with the drug treatment. For knockdown experiments, cells were seeded in 12-well plates and treated with either 50 nM scrambled siRNA (cat. no. 1022076, QIAGEN) or indicated concentrations of siRNAs. Next day, cells were collected by trypsinization and re-plated into 96-well plates for 3D spheroid suspension culture.
(§2) Spheroid formation efficiency was analyzed by an alamarBlue assay reagent (cat. no. DAL1100, Thermo Fisher Scientific). A 10% final volume of the alamarBlue reagent was added to each well of the plate and incubated for 4 h at 37°C. Then the fluorescence intensity was measured using the FLUOstar OPTIMA plate reader (BMG Labtech, Germany) with an excitation wavelength of 560 ± 5 nm and an emission wavelength of 590 ± 5 nm.
(§3) To quantitatively profile the drug sensitivity with a more robust parameter than the IC50 or EC50 values, the drug sensitivity score (DSS) analysis was employed. DSS values are essentially normalized area under the curve (AUC) measures of dose-response inhibition data ([Yadav et al., 2014]). Drug response data files (in Excel) ready for online analysis were prepared according to the example file obtained from the DSS pipeline website, called Breeze^1 ([Potdar et al., 2020]). Either raw fluorescence intensity measurements or normalized % inhibition data (for BRET assay analysis) were uploaded.
(§4) DSS3 was employed to emphasize drugs that obtain their response area over a relatively wide dose window, as compared to drugs that show increased response only at the higher end of the concentration range. After logistic fitting of the dose-response inhibition data, the area under the curve (AUC) was determined as the exact solution. A 10% minimal activity threshold (t) was set. The maximum (Cmax) and minimum (Cmin) concentrations were used for screening of the inhibitors, with Cmax = x2 and x1 concentration with minimal activity t.

A further experiment has as its system MDA-MB-231. The description is as above. The note with it: for IC50: Homo sapiens; for KRAS/HRAS mutant cell line DSS3 ratio: MDA-MB-231 vs Hs 578T 3D spheroid formation, 0.6–40 μM, numbers above bars Fig. 1A,B. The method, then:
as §1, §2, §3, §4

Where [1] appears, read: 72 h, Hs 578T (H-RasG12D) 3D tumorosphere, 3 days treatment, read-out: IC50.
The mark [2] stands for this setting: Hs 578T 3D tumorosphere, log scale, read-out: logIC50 ± SD (converted).
The mark [3] stands for this setting: 72 h, MDA-MB-231 (K-RasG13D) 3D tumorosphere, 3 days treatment, read-out: IC50.
The mark [4] stands for this setting: MDA-MB-231 3D tumorosphere, log scale, read-out: logIC50 ± SD (converted).

Molecules are shown by their SMILES. Where two headings read alike, the source gives them in different places.

`CC(C)=C[C@H]1C[C@H](C)[C@]2(CC[C@]3(C)C[C@H]4[C@H](C(=O)C[C@@]4(C)O)/C(C=O)=C\C[C@H]32)O1` [OphA, Ophiobolin A, reference compound]: the “time-dependent change of K-RasG12V nanoclustering-BRET signal” value in the experiment on K-RasG12V (2-h treatment timeframe, OphA 10 μM, mevastatin 10 μM) is “no significant BRET change”. The “K-Ras selective reduction of nanoclustering-BRET (K-Ras vs H-Ras)” value in the experiment on K-RasG12V (24 h, calmidazolium 20 μM, OphA 2.5 μM, prostratin 10 μM, mevastatin 10 μM, benzazulenones 20 μM) is 1.2 fold. Also, the IC50 in the experiment with Hs 578T (setting [1]) was 1.8 µM; with Hs 578T (setting [2]) it was 1.78 µM; in the experiment with MDA-MB-231 (setting [3]) it was 0.3 µM; in the experiment on MDA-MB-231 (setting [4]) it was 0.288 µM. The “KRAS/HRAS mutant cell line DSS3 ratio” value in the experiment on MDA-MB-231 amounted to 3.1.

As to `CC(C)c1ccc2cc(C(F)(F)F)c(=O)c3c(N4CCCCC4)c(C=O)c(c1)c23` [Compound 1], the “reduction in the K-RasG12V BRET signal” value with K-RasG12V (1 at 50 μM, within 10 min of treatment) came out at 38%. Further, the “higher effectivity than calmidazolium in cell biological experiments” value in the experiment on K-RasG12V (Calmirasone1 used at 2.5-fold higher concentration, Figures 3F, 7B) was above 25 fold. For the same compound, the IC50 is 22.5 µM with Hs 578T (setting [1]), 22.4 µM in the experiment with Hs 578T (setting [2]), 12 µM with MDA-MB-231 (setting [3]) and 12 µM with MDA-MB-231 (setting [4]). Also, the “KRAS/HRAS mutant cell line DSS3 ratio” value in the experiment on MDA-MB-231 worked out at 4.1.
